Among the data in PubChem BioAssay AID200 (DTP/NCI, 2004) are T/C values, retold here.

Values joined by “and” are separate entries in the source; they are usually repeats but may differ in a detail not shown here. Equal values may be shown once. Inconclusive results and toxic doses are left out.

This test has as its system B6C3F1 mice, B16 melanoma ip, median survival T/C. Briefly: NCI In Vivo Anticancer Drug Screen. Data for tumor model B16 Melanoma (intraperitoneal) in B6C3F1 mice. As to conditions: endpoint: median survival time, higher = longer survival. An outline of the steps: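 Transplantable tumor in mice; treated vs vehicle control groups; survival or tumor size measured; value = T/C ratio.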

[1] abbreviates: dose: 50.0 mg/kg/injection, schedule: Q01DX009 (ip), vehicle: Klucel (hydroxypropylcellulose) (HPC).
Where [2] appears, read: dose: 100.0 mg/kg/injection, schedule: Q01DX009 (ip), vehicle: Klucel (hydroxypropylcellulose) (HPC).
[3] abbreviates: dose: 12.5 mg/kg/injection, schedule: Q01DX009 (ip), vehicle: saline.
The mark [4] stands for this setting: dose: 12.5 mg/kg/injection, schedule: Q01DX009 (ip), vehicle: water.
[5] abbreviates: dose: 25.0 mg/kg/injection, schedule: Q01DX009 (ip), vehicle: saline.
[6] abbreviates: dose: 25.0 mg/kg/injection, schedule: Q01DX009 (ip), vehicle: water.
Where [7] appears, read: dose: 50.0 mg/kg/injection, schedule: Q01DX009 (ip), vehicle: saline.
[8] abbreviates: dose: 50.0 mg/kg/injection, schedule: Q01DX009 (ip), vehicle: water.
[9] abbreviates: dose: 100.0 mg/kg/injection, schedule: Q01DX009 (ip), vehicle: saline.
[10] abbreviates: dose: 100.0 mg/kg/injection, schedule: Q01DX009 (ip), vehicle: water.
The mark [11] stands for this setting: dose: 200.0 mg/kg/injection, schedule: Q01DX009 (ip), vehicle: saline.
[12] abbreviates: dose: 6.25 mg/kg/injection, schedule: Q01DX009 (ip), vehicle: saline with Tween-80.
Where [13] appears, read: dose: 1.5 mg/kg/injection, schedule: Q01DX009 (ip), vehicle: saline.
The mark [14] stands for this setting: dose: 6.0 mg/kg/injection, schedule: Q01DX009 (ip), vehicle: saline.
Where [15] appears, read: dose: 6.25 mg/kg/injection, schedule: Q01DX009 (ip), vehicle: Klucel (hydroxypropylcellulose) (HPC).
Setting [16] is: dose: 12.5 mg/kg/injection, schedule: Q01DX009 (ip), vehicle: Klucel (hydroxypropylcellulose) (HPC).
Where [17] appears, read: dose: 25.0 mg/kg/injection, schedule: Q01DX009 (ip), vehicle: Klucel (hydroxypropylcellulose) (HPC).
The mark [18] stands for this setting: dose: 12.5 mg/kg/injection, schedule: Q01DX009 (ip), vehicle: saline with Tween-80.
The mark [19] stands for this setting: dose: 25.0 mg/kg/injection, schedule: Q01DX009 (ip), vehicle: saline with Tween-80.
Setting [20] is: dose: 50.0 mg/kg/injection, schedule: Q01DX009 (ip), vehicle: saline with Tween-80.
Where [21] appears, read: dose: 100.0 mg/kg/injection, schedule: Q01DX009 (ip), vehicle: saline with Tween-80.

As for `Cc1cc(NC(=S)SCc2ccc3c(c2)OCO3)ccc1Cl`, the T/C runs as follows: under setting [1], 103 % of control; under setting [2], 112 % of control.
With `CN(C)[C@@H]1C(=O)C(C(N)=O)=C(O)[C@@]2(O)C(=O)C3=C(O)c4c(O)ccc(Cl)c4[C@@](C)(O)[C@H]3C[C@@H]12`, the T/C under setting [3] was 97 % of control; the T/C under setting [4] was 109 % of control; the T/C under setting [5] was 97 % of control; the T/C under setting [6] was 105 % of control; the T/C under setting [7] was 101 % of control; the T/C under setting [8] is 104 % of control. Moreover, the T/C is 94 % of control under setting [9]; 100 % of control under setting [10]; 98 % of control under setting [11]; 106 % of control (dose: 200.0 mg/kg/injection, schedule: Q01DX009 (ip), vehicle: water).
Take `CO[C@@]12[C@@H]3N[C@@H]3CN1C1=C(C(=O)C(N3CCCC3)=C(C)C1=O)[C@@H]2COC(N)=O`: the T/C runs as follows: (dose: 3.12 mg/kg/injection, schedule: Q01DX009 (ip), vehicle: saline with Tween-80) 327 % of control; under setting [12], 100 % of control.
Consider `COc1cccc2c1C(=O)c1c(O)c3c(c(O)c1C2=O)C[C@@](O)(/C(C)=N\O)C[C@@H]3OC1CC(N)C(O)C(C)O1` (stereo partly drawn), for which the T/C was 160 % of control under setting [13]; 150 % of control (dose: 3.13 mg/kg/injection, schedule: Q01DX009 (ip), vehicle: water); 164 % of control under setting [14]; 182 % of control (dose: 6.25 mg/kg/injection, schedule: Q01DX009 (ip), vehicle: water); 217 % of control (dose: 12.0 mg/kg/injection, schedule: Q01DX009 (ip), vehicle: saline); 178 % of control under setting [4]. Besides, the T/C (dose: 24.0 mg/kg/injection, schedule: Q01DX009 (ip), vehicle: saline) is 204 % of control.
With `NC(=O)c1c[se]c(C2OC(CO)C(O)C2O)n1` (stereo not drawn), the T/C reads like this: under setting [4], 109 % of control; under setting [6], 102 % of control; under setting [8], 115 % of control; under setting [10], 109 % of control.
In the case of `CC(C)CC(NC(=O)CNC(=O)CNC(=O)OCc1ccccc1)C(=O)O` (stereo not drawn), the T/C is, setting by setting: (dose: 0.75 mg/kg/injection, schedule: Q01DX009 (ip), vehicle: Klucel (hydroxypropylcellulose) (HPC)) 103 % of control; (dose: 1.5 mg/kg/injection, schedule: Q01DX009 (ip), vehicle: Klucel (hydroxypropylcellulose) (HPC)) 107 % of control; (dose: 3.0 mg/kg/injection, schedule: Q01DX009 (ip), vehicle: Klucel (hydroxypropylcellulose) (HPC)) 95 % of control; (dose: 3.12 mg/kg/injection, schedule: Q01DX009 (ip), vehicle: Klucel (hydroxypropylcellulose) (HPC)) 101 % of control; (dose: 6.0 mg/kg/injection, schedule: Q01DX009 (ip), vehicle: Klucel (hydroxypropylcellulose) (HPC)) 106 % of control; under setting [15], 92 % of control. The T/C runs as follows: (dose: 12.0 mg/kg/injection, schedule: Q01DX009 (ip), vehicle: Klucel (hydroxypropylcellulose) (HPC)) 101 % of control; under setting [16], 92 % of control; under setting [17], 115 % of control and 104 % of control; under setting [1], 100 % of control; under setting [2], 122 % of control; (dose: 200.0 mg/kg/injection, schedule: Q01DX009 (ip), vehicle: Klucel (hydroxypropylcellulose) (HPC)) 89 % of control. Also, the T/C (dose: 400.0 mg/kg/injection, schedule: Q01DX009 (ip), vehicle: Klucel (hydroxypropylcellulose) (HPC)) is 110 % of control.
For `COC(=O)[C@@]12OC[C@]34[C@H]([C@@H](O)[C@@H]1O)[C@@]1(C)CC(=O)C(O)=C(C)[C@@H]1C[C@H]3OC(=O)[C@H](OC(=O)/C=C(\C)C1(C)CO1)[C@@H]24` (stereo partly drawn), the T/C is 108 % of control (dose: 0.01 mg/kg/injection, schedule: Q01DX009 (ip), vehicle: saline + alcohol) and 116 % of control (dose: 0.03 mg/kg/injection, schedule: Q01DX009 (ip), vehicle: saline + alcohol).
In the case of `COC(COC(=O)N1CCN(C=O)CC1)C1=C(N2CC2)C(=O)C(C)=C(N2CC2)C1=O` (stereo not drawn), the T/C is 160 % of control and 194 % of control under setting [13]; 173 % of control and 234 % of control (dose: 3.0 mg/kg/injection, schedule: Q01DX009 (ip), vehicle: saline); 254 % of control under setting [14].
Regarding `CCCCC(=O)OCC1OC(n2cnc3c(=S)nc[nH]c32)C(OC(=O)CCCC)C1OC(=O)CCCC` (stereo not drawn), the T/C is 102 % of control under setting [12], 105 % of control under setting [18], 108 % of control under setting [19] and 92 % of control under setting [20].
For the molecule `CCCC(C(=O)OCCN1CCCC12CCCCC2)C1CCCC1` (stereo not drawn), the T/C under setting [3] is 105 % of control, the T/C under setting [5] is 91 % of control and the T/C under setting [7] is 91 % of control.
For `CC(NC(=O)C1CCCN1C(=O)CN)C(=O)O` (stereo not drawn), the T/C is, setting by setting: under setting [9], 105 % of control; under setting [11], 92 % of control; (dose: 400.0 mg/kg/injection, schedule: Q01DX009 (ip), vehicle: saline) 96 % of control.
For `Cc1c2ccnc(C(N)=O)c2c(C)c2c1[nH]c1ccccc12`, the T/C is, setting by setting: (dose: 62.0 mg/kg/injection, schedule: Q04DX003 (ip), vehicle: distilled water + Tween-80) 96 % of control; (dose: 125.0 mg/kg/injection, schedule: Q04DX003 (ip), vehicle: distilled water + Tween-80) 120 % of control; (dose: 200.0 mg/kg/injection, schedule: Q01DX009 (ip), vehicle: distilled water + Tween-80) 117 % of control; (dose: 250.0 mg/kg/injection, schedule: Q04DX003 (ip), vehicle: distilled water + Tween-80) 106 % of control; (dose: 400.0 mg/kg/injection, schedule: Q01DX009 (ip), vehicle: distilled water + Tween-80) 123 % of control; (dose: 500.0 mg/kg/injection, schedule: Q04DX003 (ip), vehicle: distilled water + Tween-80) 100 % of control. In addition, the T/C (dose: 1000.0 mg/kg/injection, schedule: Q04DX003 (ip), vehicle: distilled water + Tween-80) is 124 % of control.
For `C=C1C(=O)O[C@@H]2[C@H]3O[C@]3(C)CCC=C(C)CC[C@@H]12`, the T/C under setting [15] is 91 % of control, the T/C under setting [16] is 97 % of control, the T/C under setting [17] is 98 % of control and the T/C under setting [1] is 108 % of control.
On to `C=C1C(O)C2(O)OCC34C(CC5C(C)=CC(=O)C(O)C5(C)C23)OC(=O)C(OC(=O)C/C=C(\C)CCCCC)C14` (stereo not drawn), for which the T/C reads like this: (dose: 4.0 mg/kg/injection, schedule: Q01DX009 (ip), vehicle: saline + alcohol) 187 % of control; (dose: 4.8 mg/kg/injection, schedule: Q01DX009 (ip), vehicle: saline + Tween-80 + alcohol) 156 % of control; (dose: 8.0 mg/kg/injection, schedule: Q01DX009 (ip), vehicle: saline + Tween-80 + alcohol) 154 % of control; (dose: 8.0 mg/kg/injection, schedule: Q01DX009 (ip), vehicle: saline + alcohol) 187 % of control.
`CCN(C)N=Nc1ccc(C(N)=O)cc1`: the T/C runs as follows: under setting [15], 117 % of control and 95 % of control; under setting [16], 104 % of control and 106 % of control; under setting [17], 95 % of control and 101 % of control; under setting [1], 110 % of control and 102 % of control.
For the molecule `C[n+]1c(/C=N/NC(N)=S)ccc2ccccc21`, the T/C is 92 % of control under setting [12]; 87 % of control under setting [18]; 92 % of control under setting [19]; 94 % of control under setting [20]; 92 % of control under setting [21].
Take `CC(C)(C)SCC(NC(=O)OCC1c2ccccc2-c2ccccc21)C(=O)O` (stereo not drawn): the T/C under setting [17] is 91 % of control; the T/C under setting [1] is 97 % of control; the T/C under setting [2] is 91 % of control and 92 % of control.
For `CN=S(=O)(OCCCCCOS(=O)(=NC)c1ccccc1)c1ccccc1` (stereo not drawn), the T/C is 112 % of control and 201 % of control under setting [18]; 119 % of control under setting [19]; 198 % of control under setting [21].
`Nc1ncc(C2OC(CO)C(O)C2O)c(=O)[nH]1` (stereo not drawn): the T/C under setting [7] was 150 % of control and the T/C under setting [9] was 154 % of control.
Regarding `O=CC(S)CO` (stereo not drawn), the T/C reads like this: under setting [3], 107 % of control; under setting [5], 111 % of control; under setting [7], 123 % of control.
